Assay results taken from ChEMBL document CHEMBL3124787, “Discovery of novel bis-oxazolidinone compounds as potential potent and selective antitubercular agents” (Bioorg Med Chem Lett, 2014).
In brackets after ≈: the same amount, converted by molar mass.

How the values were obtained:
[1] = tested on: Pseudomonas aeruginosa; assay: Antibacterial activity against Pseudomonas aeruginosa ATCC 27853 assessed as growth inhibition after 18 hrs by broth microdilution method; assay type: functional; details: ATCC 27853, 18 h
[2] = tested on: Escherichia coli; assay: Antibacterial activity against Escherichia coli ATCC 25922 assessed as growth inhibition after 18 hrs by broth microdilution method; assay type: functional; details: ATCC 25922, 18 h
[3] = tested on: Mycolicibacterium smegmatis; assay: Antibacterial activity against Mycobacterium smegmatis assessed as growth inhibition after 18 hrs by broth microdilution method; assay type: functional
[4] = tested on: Staphylococcus aureus; assay: Antibacterial activity against methicillin-resistant Staphylococcus aureus ATCC 43300 assessed as growth inhibition after 18 hrs by broth microdilution method; assay type: functional; details: ATCC 43300, 18 h
[5] = tested on: Staphylococcus aureus; assay: Antibacterial activity against methicillin-resistant Staphylococcus aureus ATCC 33591 assessed as growth inhibition after 18 hrs by broth microdilution method; assay type: functional; details: ATCC 33591, 18 h
[6] = tested on: Staphylococcus aureus; assay: Antibacterial activity against methicillin-susceptible Staphylococcus aureus CMCC 26003 assessed as growth inhibition after 18 hrs by broth microdilution method; assay type: functional; details: CMCC 26003, 18 h
[7] = tested on: Staphylococcus aureus; assay: Antibacterial activity against methicillin-susceptible Staphylococcus aureus ATCC 6538 assessed as growth inhibition after 18 hrs by broth microdilution method; assay type: functional; details: ATCC 6538, 18 h
[8] = tested on: Staphylococcus aureus; assay: Antibacterial activity against methicillin-susceptible Staphylococcus aureus ATCC 29213 assessed as growth inhibition after 18 hrs by broth microdilution method; assay type: functional; details: ATCC 29213, 18 h
[9] = tested on: Staphylococcus aureus; assay: Antibacterial activity against methicillin-susceptible Staphylococcus aureus ATCC 25923 assessed as growth inhibition after 18 hrs by broth microdilution method; assay type: functional; details: ATCC 25923, 18 h
[10] = Aqueous solubility of the compound by HPLC analysis; assay type: physicochemical
[11] = Lipophilicity, log P of the compound by HPLC analysis; assay type: physicochemical
[12] = Selectivity index, ratio of IC50 for African green monkey Vero cells to MIC for Mycobacterium tuberculosis H37RV ATCC 27294; assay type: toxicity, cell-based; details: read-out: Selectivity Index
[13] = tested on: Vero; assay: Cytotoxicity against African green monkey Vero cells after 48 hrs by MTT assay; assay type: cell-based; details: Chlorocebus sabaeus
[14] = tested on: Mycobacterium tuberculosis; assay: Antitubercular activity against Mycobacterium tuberculosis H37RV ATCC 27294 assessed as growth inhibition after 3 to 11 days by microdilution method; assay type: functional

SMILES	MIC99 [1] [µg/mL]	MIC99 [2] [µg/mL]	MIC99 [3] [µg/mL]	MIC99 [4] [µg/mL]	MIC99 [5] [µg/mL]	MIC99 [6] [µg/mL]	MIC99 [7] [µg/mL]	MIC99 [8] [µg/mL]	MIC99 [9] [µg/mL]	solubility [10] [µM]	logP [11]	selectivity ratio [12]	IC50 [13] [µg/mL]	MIC [14] [µg/mL]
CC(=O)NC[C@H]1CN(c2ccc(OC[C@@H](O)CNCCC(C)C)c(F)c2)C(=O)O1	> 32	> 32	> 64	> 32	> 32	> 32	> 32	> 32	> 32	385 (≈ 158 µg/mL)	1.17	–	–	–
CC(=O)NC[C@H]1CN(c2ccc(OC[C@H](O)CNc3ccncc3)c(F)c2)C(=O)O1	> 32	> 32	> 64	> 32	> 32	> 32	> 32	> 32	> 32	24600 (≈ 10300 µg/mL)	0.02	–	–	–
CC(=O)NC[C@H]1CN(c2ccc(OC[C@@H](O)CNC3CC3)c(F)c2)C(=O)O1	> 32	> 32	32 (≈ 83.9 µM)	> 32	> 32	> 32	> 32	> 32	> 32	96000 (≈ 36600 µg/mL)	0.02	–	–	–
CC(=O)NC[C@H]1CN(c2ccc(OC[C@H](O)CNC3CC3)c(F)c2)C(=O)O1	> 32	> 32	> 64	> 32	> 32	> 32	> 32	> 32	> 32	2200 (≈ 840 µg/mL)	-0.1	–	–	–
CC(=O)NC[C@H]1CN(c2ccc(OC[C@H](O)CNCCC(C)C)c(F)c2)C(=O)O1	> 32	> 32	> 64	> 32	> 32	> 32	> 32	> 32	> 32	7280 (≈ 2990 µg/mL)	1.19	–	–	–
COc1ccc(N2C[C@@H](COc3ccc(N4C[C@H](CNC(C)=O)OC4=O)cc3F)OC2=O)cc1	> 32	> 32	> 64	16 (≈ 33.8 µM)	16 (≈ 33.8 µM)	8 (≈ 16.9 µM)	8 (≈ 16.9 µM)	16 (≈ 33.8 µM)	16 (≈ 33.8 µM)	132 (≈ 62.5 µg/mL)	1.91	152	19.1 (≈ 40.3 µM)	0.125 (≈ 0.264 µM)
COc1ccc(N2C[C@H](COc3ccc(N4C[C@H](CNC(C)=O)OC4=O)cc3F)OC2=O)cc1	> 32	> 32	> 64	4 (≈ 8.45 µM)	8 (≈ 16.9 µM)	4 (≈ 8.45 µM)	4 (≈ 8.45 µM)	8 (≈ 16.9 µM)	8 (≈ 16.9 µM)	211 (≈ 99.9 µg/mL)	1.73	428	107 (≈ 226 µM)	0.25 (≈ 0.528 µM)
CC(=O)NC[C@H]1CN(c2ccc(OC[C@@H]3CNC(=O)O3)c(F)c2)C(=O)O1	–	–	–	–	–	–	–	–	–	2720 (≈ 999 µg/mL)	0.01	–	–	8 (≈ 21.8 µM)
CC(=O)NC[C@H]1CN(c2ccc(NC[C@H](O)COc3ccc(N4C[C@H](CNC(C)=O)OC4=O)cc3F)c(F)c2)C(=O)O1	–	–	–	–	–	–	–	–	–	81 (≈ 47.9 µg/mL)	0.59	–	–	32 (≈ 54.1 µM)
CC(=O)NC[C@H]1CN(c2ccc(OC[C@@H]3CN(c4ccc(N5C[C@H](CNC(C)=O)OC5=O)cc4F)C(=O)O3)c(F)c2)C(=O)O1	–	–	–	–	–	–	–	–	–	333 (≈ 206 µg/mL)	0.43	–	–	16 (≈ 25.9 µM)
O=C1O[C@H](COc2ccccc2F)CN1c1ccccc1	–	–	–	–	–	–	–	–	–	441 (≈ 127 µg/mL)	3.19	–	–	32 (≈ 111 µM)
COc1ccc(NC[C@H](O)COc2ccc(N3C[C@H](CNC(C)=O)OC3=O)cc2F)cc1	> 32	> 32	64 (≈ 143 µM)	8 (≈ 17.9 µM)	16 (≈ 35.8 µM)	4 (≈ 8.94 µM)	4 (≈ 8.94 µM)	8 (≈ 17.9 µM)	8 (≈ 17.9 µM)	56 (≈ 25.1 µg/mL)	0.95	–	–	8 (≈ 17.9 µM)
COc1ccc(NC[C@@H](O)COc2ccc(N3C[C@H](CNC(C)=O)OC3=O)cc2F)cc1	> 32	> 32	64 (≈ 143 µM)	16 (≈ 35.8 µM)	16 (≈ 35.8 µM)	8 (≈ 17.9 µM)	8 (≈ 17.9 µM)	16 (≈ 35.8 µM)	16 (≈ 35.8 µM)	1.3 (≈ 0.582 µg/mL)	1.15	–	–	–
CC(=O)NC[C@H]1CN(c2ccc(OC[C@@H](O)CNc3ccccc3)c(F)c2)C(=O)O1	> 32	> 32	> 64	4 (≈ 9.58 µM)	8 (≈ 19.2 µM)	4 (≈ 9.58 µM)	4 (≈ 9.58 µM)	8 (≈ 19.2 µM)	8 (≈ 19.2 µM)	124 (≈ 51.8 µg/mL)	1.42	–	–	8 (≈ 19.2 µM)
CC(=O)NC[C@H]1CN(c2ccc(OC[C@H](O)CNc3ccccc3)c(F)c2)C(=O)O1	> 32	> 32	> 64	8 (≈ 19.2 µM)	8 (≈ 19.2 µM)	8 (≈ 19.2 µM)	4 (≈ 9.58 µM)	8 (≈ 19.2 µM)	8 (≈ 19.2 µM)	296 (≈ 124 µg/mL)	0.59	–	–	–
CC(=O)NC[C@H]1CN(c2ccc(OC[C@@H](O)CNc3ccc(C#N)cc3)c(F)c2)C(=O)O1	> 32	> 32	16 (≈ 36.2 µM)	8 (≈ 18.1 µM)	16 (≈ 36.2 µM)	8 (≈ 18.1 µM)	4 (≈ 9.04 µM)	16 (≈ 36.2 µM)	16 (≈ 36.2 µM)	47 (≈ 20.8 µg/mL)	2.12	–	–	–
CC(=O)NC[C@H]1CN(c2ccc(OC[C@H](O)CNc3ccc(C#N)cc3)c(F)c2)C(=O)O1	> 32	> 32	32 (≈ 72.3 µM)	16 (≈ 36.2 µM)	16 (≈ 36.2 µM)	8 (≈ 18.1 µM)	8 (≈ 18.1 µM)	16 (≈ 36.2 µM)	16 (≈ 36.2 µM)	69 (≈ 30.5 µg/mL)	1.29	–	–	–
CC(=O)NC[C@H]1CN(c2ccc(OC[C@@H](O)CNc3cc(C(F)(F)F)cc(C(F)(F)F)c3)c(F)c2)C(=O)O1	> 32	> 32	16 (≈ 28.9 µM)	16 (≈ 28.9 µM)	32 (≈ 57.8 µM)	16 (≈ 28.9 µM)	8 (≈ 14.5 µM)	16 (≈ 28.9 µM)	16 (≈ 28.9 µM)	–	3.1	–	–	–
CC(=O)NC[C@H]1CN(c2ccc(OC[C@H](O)CNc3cc(C(F)(F)F)cc(C(F)(F)F)c3)c(F)c2)C(=O)O1	> 32	> 32	> 64	> 32	> 32	> 32	32 (≈ 57.8 µM)	> 32	> 32	22 (≈ 12.2 µg/mL)	3.01	–	–	–
CC(=O)NC[C@H]1CN(c2ccc(OC[C@@H](O)CNc3ccccn3)c(F)c2)C(=O)O1	> 32	> 32	> 64	> 32	> 32	> 32	> 32	> 32	> 32	22200 (≈ 9290 µg/mL)	1.37	–	–	–
CC(=O)NC[C@H]1CN(c2ccc(OC[C@H](O)CNc3ccccn3)c(F)c2)C(=O)O1	> 32	> 32	> 64	> 32	> 32	> 32	> 32	> 32	> 32	35100 (≈ 14700 µg/mL)	1.6	–	–	–
CC(=O)NC[C@H]1CN(c2ccc(OC[C@@H](O)CNc3cccnc3)c(F)c2)C(=O)O1	> 32	> 32	> 64	> 32	> 32	> 32	> 32	> 32	> 32	3040 (≈ 1270 µg/mL)	0.02	–	–	–
CC(=O)NC[C@H]1CN(c2ccc(OC[C@H](O)CNc3cccnc3)c(F)c2)C(=O)O1	> 32	> 32	> 64	32 (≈ 76.5 µM)	32 (≈ 76.5 µM)	32 (≈ 76.5 µM)	32 (≈ 76.5 µM)	32 (≈ 76.5 µM)	32 (≈ 76.5 µM)	10100 (≈ 4240 µg/mL)	-0.18	–	–	–
CC(=O)NC[C@H]1CN(c2ccc(OC[C@@H](O)CNc3ccncc3)c(F)c2)C(=O)O1	> 32	> 32	> 64	> 32	> 32	> 32	> 32	> 32	> 32	17700 (≈ 7420 µg/mL)	-0.04	–	–	–
NNC(=O)c1ccncc1 [ISONIAZID]	–	–	4 (≈ 29.2 µM)	–	–	–	–	–	–	–	–	–	–	0.0625 (≈ 0.456 µM)
CC(=O)NC[C@H]1CN(c2ccc(N3CCOCC3)c(F)c2)C(=O)O1 [LINEZOLID]	> 32	> 32	–	2 (≈ 5.93 µM)	2 (≈ 5.93 µM)	2 (≈ 5.93 µM)	1 (≈ 2.96 µM)	2 (≈ 5.93 µM)	2 (≈ 5.93 µM)	–	–	–	–	0.25 (≈ 0.741 µM)
